From patent US20240383875A1, “Benzimidazole Pyridine Derivatives” (Hoffmann-La Roche Inc., priority 2022, published 2024)

Assays:
Format in all cases: biochemical
SIK3 = SIK3 (Homo sapiens, UniProt Q9Y2K2); assay: Enzymatic activity assay SIK3, RapidFire mass spectrometry (phosphorylation of CHK-peptide); conditions: RapidFire MS, inhibition of SIK3; read-out: SIK3 RF IC50
Procedure, shortened: (§1)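 Compounds (12-point, 3-fold, generally 30 μM to 170 pM) were pre-incubated 30 min at ambient temperature with SIK1 (5 nM), SIK2 (0.5 nM) or SIK3 (1.5 nM) in HEPES pH 7.0/magnesium acetate buffer. CHK-peptide (10 μM solution) and ATP (100 μM solution) were then added for 45 min before formic acid quench.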

SIK2 = SIK2 (Homo sapiens, UniProt Q9H0K1); assay: Enzymatic activity assay SIK2, RapidFire mass spectrometry (phosphorylation of CHK-peptide); conditions: RapidFire MS, inhibition of SIK2; read-out: SIK2 RF IC50
Procedure, shortened: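 SIK2 (0.5 nM) in pH 7.0 HEPES buffer with 10 mM Mg acetate phosphorylates CHK-peptide (10 μM solution) with 100 μM ATP solution, 45 min ambient, then formic acid quench.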

SIK1 = SIK1 (Homo sapiens, UniProt P57059); assay: Enzymatic activity assay SIK1, RapidFire mass spectrometry (phosphorylation of CHK-peptide); conditions: RapidFire MS, inhibition of SIK1; read-out: SIK1 RF IC50
Procedure, shortened: as §1

Sequence of SIK3 (Q9Y2K2 whole entry): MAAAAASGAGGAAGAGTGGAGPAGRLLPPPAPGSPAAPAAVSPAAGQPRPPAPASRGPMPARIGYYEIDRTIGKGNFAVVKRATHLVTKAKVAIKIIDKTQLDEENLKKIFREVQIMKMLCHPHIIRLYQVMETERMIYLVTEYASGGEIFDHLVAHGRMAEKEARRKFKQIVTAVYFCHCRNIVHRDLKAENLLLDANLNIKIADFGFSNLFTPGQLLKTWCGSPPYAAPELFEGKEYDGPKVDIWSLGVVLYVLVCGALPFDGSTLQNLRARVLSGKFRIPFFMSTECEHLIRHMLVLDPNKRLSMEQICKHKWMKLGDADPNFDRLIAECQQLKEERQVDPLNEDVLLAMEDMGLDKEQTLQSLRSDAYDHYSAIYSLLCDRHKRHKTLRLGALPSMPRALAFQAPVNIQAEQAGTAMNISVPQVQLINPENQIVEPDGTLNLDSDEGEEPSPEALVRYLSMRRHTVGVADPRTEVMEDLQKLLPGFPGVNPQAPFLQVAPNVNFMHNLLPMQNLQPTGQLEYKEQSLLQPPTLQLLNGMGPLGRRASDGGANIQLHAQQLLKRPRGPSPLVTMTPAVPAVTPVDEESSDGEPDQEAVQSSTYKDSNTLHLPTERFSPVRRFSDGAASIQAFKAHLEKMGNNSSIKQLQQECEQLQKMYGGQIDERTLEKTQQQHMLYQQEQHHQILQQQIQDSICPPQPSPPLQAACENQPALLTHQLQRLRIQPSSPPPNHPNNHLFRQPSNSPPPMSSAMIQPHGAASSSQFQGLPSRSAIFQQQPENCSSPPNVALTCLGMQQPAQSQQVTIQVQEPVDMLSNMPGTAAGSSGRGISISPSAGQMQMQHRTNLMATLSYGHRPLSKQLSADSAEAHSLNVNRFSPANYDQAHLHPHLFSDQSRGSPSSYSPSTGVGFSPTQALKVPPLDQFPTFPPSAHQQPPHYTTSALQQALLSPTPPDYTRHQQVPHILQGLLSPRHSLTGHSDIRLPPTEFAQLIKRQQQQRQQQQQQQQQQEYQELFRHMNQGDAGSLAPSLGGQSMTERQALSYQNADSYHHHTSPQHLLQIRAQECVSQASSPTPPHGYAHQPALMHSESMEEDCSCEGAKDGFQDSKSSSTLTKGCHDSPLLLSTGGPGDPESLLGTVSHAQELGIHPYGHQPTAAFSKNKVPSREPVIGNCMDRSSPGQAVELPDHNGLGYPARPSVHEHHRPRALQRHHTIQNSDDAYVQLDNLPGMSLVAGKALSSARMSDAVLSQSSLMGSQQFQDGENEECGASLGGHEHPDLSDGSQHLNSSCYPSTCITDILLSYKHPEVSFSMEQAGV
Sequence of SIK2 (Q9H0K1 whole entry): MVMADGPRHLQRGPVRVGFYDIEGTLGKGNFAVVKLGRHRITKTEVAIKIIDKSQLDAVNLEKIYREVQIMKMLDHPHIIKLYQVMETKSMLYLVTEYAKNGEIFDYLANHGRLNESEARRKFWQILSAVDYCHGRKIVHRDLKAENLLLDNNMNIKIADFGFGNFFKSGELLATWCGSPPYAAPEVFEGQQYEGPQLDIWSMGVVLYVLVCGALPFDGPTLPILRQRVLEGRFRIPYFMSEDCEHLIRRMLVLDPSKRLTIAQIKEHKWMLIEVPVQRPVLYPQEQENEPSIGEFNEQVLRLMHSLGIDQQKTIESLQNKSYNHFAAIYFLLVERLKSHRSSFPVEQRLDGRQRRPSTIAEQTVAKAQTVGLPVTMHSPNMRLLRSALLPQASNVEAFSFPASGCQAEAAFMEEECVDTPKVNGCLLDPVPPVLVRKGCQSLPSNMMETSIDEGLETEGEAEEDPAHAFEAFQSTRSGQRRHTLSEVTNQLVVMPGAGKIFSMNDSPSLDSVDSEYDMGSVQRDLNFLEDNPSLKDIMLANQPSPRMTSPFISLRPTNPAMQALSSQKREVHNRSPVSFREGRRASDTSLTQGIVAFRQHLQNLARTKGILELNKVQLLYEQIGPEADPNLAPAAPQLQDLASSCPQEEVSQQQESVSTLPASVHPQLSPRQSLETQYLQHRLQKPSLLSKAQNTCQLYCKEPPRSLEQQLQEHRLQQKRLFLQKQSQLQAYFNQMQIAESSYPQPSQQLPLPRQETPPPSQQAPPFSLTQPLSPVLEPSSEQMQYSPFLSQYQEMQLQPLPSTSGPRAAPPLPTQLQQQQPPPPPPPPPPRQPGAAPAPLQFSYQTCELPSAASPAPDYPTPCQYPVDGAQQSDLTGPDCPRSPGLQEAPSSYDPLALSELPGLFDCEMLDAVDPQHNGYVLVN
Sequence of SIK1 (P57059 whole entry): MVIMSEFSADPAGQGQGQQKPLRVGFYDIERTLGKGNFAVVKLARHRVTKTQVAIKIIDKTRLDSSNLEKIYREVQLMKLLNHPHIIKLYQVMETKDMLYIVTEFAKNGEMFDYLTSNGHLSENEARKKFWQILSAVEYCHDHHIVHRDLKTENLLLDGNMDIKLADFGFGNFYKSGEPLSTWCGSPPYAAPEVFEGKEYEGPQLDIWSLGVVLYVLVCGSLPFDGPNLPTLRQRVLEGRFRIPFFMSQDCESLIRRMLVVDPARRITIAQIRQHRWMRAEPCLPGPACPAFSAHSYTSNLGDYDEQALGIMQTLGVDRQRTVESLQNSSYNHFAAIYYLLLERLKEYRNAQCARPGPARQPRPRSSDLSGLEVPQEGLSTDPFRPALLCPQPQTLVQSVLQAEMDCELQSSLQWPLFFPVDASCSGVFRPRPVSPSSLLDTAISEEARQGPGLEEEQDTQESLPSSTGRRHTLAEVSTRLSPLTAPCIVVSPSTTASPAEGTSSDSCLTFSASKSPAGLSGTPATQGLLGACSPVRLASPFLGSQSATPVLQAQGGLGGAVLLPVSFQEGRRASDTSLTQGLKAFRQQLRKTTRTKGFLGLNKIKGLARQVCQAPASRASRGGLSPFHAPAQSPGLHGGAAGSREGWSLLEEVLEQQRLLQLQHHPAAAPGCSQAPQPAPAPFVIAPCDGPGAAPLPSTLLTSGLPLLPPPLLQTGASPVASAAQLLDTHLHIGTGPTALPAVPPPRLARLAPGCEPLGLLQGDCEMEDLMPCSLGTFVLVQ

| SMILES | IC50 (SIK3) | IC50 (SIK2) | IC50 (SIK1) |
| --- | --- | --- | --- |
| Cc1cc(C#N)nn1-c1nc(-n2cnc3cc(Nc4ccc(OCC(F)F)nn4)ccc32)ccc1C(C)O (stereo not drawn) [Example 195, 1-[6-[5-[[6-(2,2-Difluoroethoxy)pyridazin-3-yl]amino]benzimidazol-1-yl]-3-(1-hydroxyethyl)-2-pyridyl]-5-methyl-pyrazole-3-carbonitrile] | 1.4 nM | 3.1 nM | 20 nM |
| Cc1cc(C#N)nn1-c1nc(-n2cnc3cc(Nc4ccc(OC(F)F)nn4)ccc32)ccc1C(C)O (stereo not drawn) [Example 197, 1-[6-[5-[[6-(Difluoromethoxy)pyridazin-3-yl]amino]benzimidazol-1-yl]-3-(1-hydroxyethyl)-2-pyridyl]-5-methyl-pyrazole-3-carbonitrile] | 0.9 nM | 2.3 nM | 15 nM |
| Cc1ccc(Nc2ccc3c(c2)ncn3-c2ccc(C(O)C(F)F)c(-n3nc(C#N)cc3C)n2)nn1 (stereo not drawn) [Example 198, 1-[3-(2,2-Difluoro-1-hydroxy-ethyl)-6-[5-[(6-methylpyridazin-3-yl)amino]benzimidazol-1-yl]-2-pyridyl]-5-methyl-pyrazole-3-carbonitrile] | 1.8 nM | 7 nM | 391 nM |
| Cc1ccc(Nc2ccc3ncn(-c4ccc(C(O)C(F)F)c(-n5nc(C#N)cc5C)n4)c3c2)nn1 (stereo not drawn) [Example 199, 1-[3-(2,2-Difluoro-1-hydroxy-ethyl)-6-[6-[(6-methylpyridazin-3-yl)amino]benzimidazol-1-yl]-2-pyridyl]-5-methyl-pyrazole-3-carbonitrile] | 371 nM | 171 nM | 245 nM |
| Cc1cc(C#N)nn1-c1nc(-n2cnc3cc(CN4CCCS4(=O)=O)ccc32)ccc1C(C)O (stereo not drawn) [Example 201, 1-[6-[5-[(1,1-Dioxo-1,2-thiazolidin-2-yl)methyl]benzimidazol-1-yl]-3-(1-hydroxyethyl)-2-pyridyl]-5-methyl-pyrazole-3-carbonitrile] | 321 nM | 62.1 nM | 111 nM |
| Cc1cc(C#N)nn1-c1nc(-n2cnc3ccc(CN4CCCS4(=O)=O)cc32)ccc1C(C)O (stereo not drawn) [Example 202, 1-[6-[6-[(1,1-Dioxo-1,2-thiazolidin-2-yl)methyl]benzimidazol-1-yl]-3-(1-hydroxyethyl)-2-pyridyl]-5-methyl-pyrazole-3-carbonitrile] | 205 nM | 500 nM | 1020 nM |
| COc1c(O)cccc1-c1nc(-n2cnc3cc(Nc4ccc(C)nn4)ccc32)ccc1C(C)O (stereo not drawn) [Example 203, 3-[3-(1-Hydroxyethyl)-6-[5-[(6-methylpyridazin-3-yl)amino]benzimidazol-1-yl]-2-pyridyl]-2-methoxy-phenol; formic acid] | 55.4 nM | 520 nM | 14400 nM |
| Cc1ccc(Nc2ccc3c(c2)ncn3-c2ccc(C(C)O)c(-c3ccoc3C#N)n2)nn1 (stereo not drawn) [Example 204, 3-[3-(1-Hydroxyethyl)-6-[5-[(6-methylpyridazin-3-yl)amino]benzimidazol-1-yl]-2-pyridyl]furan-2-carbonitrile] | 34.4 nM | 141 nM | 9950 nM |
| Cc1ccc(Nc2ccc3c(c2)ncn3-c2ccc(C(C)O)c(-n3nc(C#N)c4c3CCNC4)n2)nn1 (stereo not drawn) [Example 205, 1-[3-(1-Hydroxyethyl)-6-[5-[(6-methylpyridazin-3-yl)amino]benzimidazol-1-yl]-2-pyridyl]-4,5,6,7-tetrahydropyrazolo[4,3-c]pyridine-3-carbonitrile] | 0.3 nM | 0.3 nM | 3 nM |
| Cc1cc(C#N)nn1-c1nc(-n2cnc3cc(Nc4ccc(OCCN5CCS(=O)(=O)CC5)nn4)ccc32)ccc1C(C)O (stereo not drawn) [Example 206, 1-[6-[5-[[6-[2-(1,1-Diketo-1,4-thiazinan-4-yl)ethoxy]pyridazin-3-yl]amino]benzimidazol-1-yl]-3-(1-hydroxyethyl)-2-pyridyl]-5-methyl-pyrazole-3-carbonitrile] | 5.3 nM | 4.5 nM | 72 nM |
| Cc1cc(C#N)nn1-c1nc(-n2cnc3cc(Nc4ccc(OC5COC5)nn4)ccc32)ccc1C(C)O (stereo not drawn) [Example 207, 1-[3-(1-Hydroxyethyl)-6-[5-[[6-(oxetan-3-yloxy)pyridazin-3-yl]amino]benzimidazol-1-yl]-2-pyridyl]-5-methyl-pyrazole-3-carbonitrile] | 2.6 nM | 3.7 nM | 27 nM |
| Cc1ccc(Nc2ccc3c(c2)ncn3-c2ccc(C(C)O)c(O[C@H]3CCNC3)n2)nn1 (stereo partly drawn) [Example 208, 1-[6-[5-[(6-Methylpyridazin-3-yl)amino]benzimidazol-1-yl]-2-[(3S)-pyrrolidin-3-yl]oxy-3-pyridyl]ethanol] | 4.8 nM | 29.7 nM | 462 nM |
| Cc1cc(C#N)nn1-c1nc(-n2cnc3ccc(CN4CCCC4=O)cc32)ccc1C(C)O (stereo not drawn) [Example 212, 1-[3-(1-Hydroxyethyl)-6-[6-[(2-oxopyrrolidin-1-yl)methyl]benzimidazol-1-yl]-2-pyridyl]-5-methyl-pyrazole-3-carbonitrile] | 1580 nM | 292 nM | 453 nM |
| Cc1cc(C#N)nn1-c1nc(-n2cnc3cc(CN4CCCC4=O)ccc32)ccc1C(C)O (stereo not drawn) [Example 213, 1-[3-(1-Hydroxyethyl)-6-[5-[(2-oxopyrrolidin-1-yl)methyl]benzimidazol-1-yl]-2-pyridyl]-5-methyl-pyrazole-3-carbonitrile] | 174 nM | 1520 nM | 7580 nM |
| COc1cc(C)n(-c2nc(-n3cnc4cc(Nc5ccc(C)nn5)ccc43)ccc2C(C)O)n1 (stereo not drawn) [Example 214, 1-[2-(3-Methoxy-5-methyl-pyrazol-1-yl)-6-[5-[(6-methylpyridazin-3-yl)amino]benzimidazol-1-yl]-3-pyridyl]ethanol; formic acid] | 3.5 nM | 20.7 nM | 1430 nM |

The next lines start with the values.

| IC50 (SIK3) | IC50 (SIK2) | IC50 (SIK1) | SMILES |
| --- | --- | --- | --- |
| 1860 nM | 371 nM | 347 nM | Cc1cc(C#N)nn1-c1nc(-n2cnc3ccc(CN4CCCCC4=O)cc32)ccc1C(C)O (stereo not drawn) [Example 215, 1-[3-(1-Hydroxyethyl)-6-[6-[(2-oxo-1-piperidyl)methyl]benzimidazol-1-yl]-2-pyridyl]-5-methyl-pyrazole-3-carbonitrile] |
| 476 nM | 2240 nM | 10800 nM | Cc1cc(C#N)nn1-c1nc(-n2cnc3cc(CN4CCCCC4=O)ccc32)ccc1C(C)O (stereo not drawn) [Example 216, 1-[3-(1-Hydroxyethyl)-6-[5-[(2-oxo-1-piperidyl)methyl]benzimidazol-1-yl]-2-pyridyl]-5-methyl-pyrazole-3-carbonitrile] |
| 4.2 nM | 6.8 nM | 2200 nM | Cc1cc(C(=O)N(C)C)c(Nc2ccc3c(c2)ncn3-c2ccc(C(C)O)c(-n3nc(C#N)cc3C)n2)nn1 (stereo not drawn) [Example 219, 3-[[1-[6-(3-Cyano-5-methyl-pyrazol-1-yl)-5-(1-hydroxyethyl)-2-pyridyl]benzimidazol-5-yl]amino]-N,N,6-trimethyl-pyridazine-4-carboxamide] |
| 46.2 nM | 154 nM | 6740 nM | Cc1ccc(Nc2ccc3c(c2)ncn3-c2ccc(C(C)O)c(-c3ccc(O)cc3C#N)n2)nn1 (stereo not drawn) [Example 220, 5-Hydroxy-2-[3-(1-hydroxyethyl)-6-[5-[(6-methylpyridazin-3-yl)amino]benzimidazol-1-yl]-2-pyridyl]benzonitrile; formic acid] |
| 335 nM | 1570 nM | > 30000 nM | Cc1ccc(Nc2ccc3c(c2)ncn3-c2ccc(C(C)O)c(-c3cc(C(F)(F)F)n[nH]c3=O)n2)nn1 (stereo not drawn) [Example 223, 5-[3-(1-Hydroxyethyl)-6-[5-[(6-methylpyridazin-3-yl)amino]benzimidazol-1-yl]-2-pyridyl]-3-(trifluoromethyl)-1H-pyridazin-6-one; formic acid] |
| 21.7 nM | 62.1 nM | > 30000 nM | Cc1ccc(Nc2ccc3c(c2)ncn3-c2ccc(C(C)O)c(-c3occc3C#N)n2)nn1 (stereo not drawn) [Example 226, 2-[3-(1-Hydroxyethyl)-6-[5-[(6-methylpyridazin-3-yl)amino]benzimidazol-1-yl]-2-pyridyl]furan-3-carbonitrile] |
| 28.6 nM | 225 nM | 4170 nM | Cc1ccc(Nc2ccc3c(c2)ncn3-c2ccc(C(C)O)c(-c3ccnn3C3CC3(F)F)n2)nn1 (stereo not drawn) [Example 227, 1-[2-[2-(2,2-Difluorocyclopropyl)pyrazol-3-yl]-6-[5-[(6-methylpyridazin-3-yl)amino]benzimidazol-1-yl]-3-pyridyl]ethanol; formic acid] |
| 0.9 nM | 1 nM | 91 nM | Cc1cc(C#N)nn1-c1nc(-n2cnc3cc(Nc4ccc(C5COC5)nn4)ccc32)ccc1C(C)O (stereo not drawn) [Example 228, 1-[3-(1-Hydroxyethyl)-6-[5-[[6-(oxetan-3-yl)pyridazin-3-yl]amino]benzimidazol-1-yl]-2-pyridyl]-5-methyl-pyrazole-3-carbonitrile] |
| 0.4 nM | 1.5 nM | 223 nM | Cc1ccc(Nc2ccc3c(c2)ncn3-c2ccc([C@H](C)O)c(-n3nc(C(F)F)cc3C)n2)nn1 [Example 229, (1S)-1-[2-[3-(Difluoromethyl)-5-methyl-pyrazol-1-yl]-6-[5-[(6-methylpyridazin-3-yl)amino]benzimidazol-1-yl]-3-pyridyl]ethanol] |
| 19.7 nM | 72.4 nM | 7090 nM | Cc1ccc(Nc2ccc3c(c2)ncn3-c2ccc([C@@H](C)O)c(-n3nc(C(F)F)cc3C)n2)nn1 [Example 230, (1R)-1-[2-[3-(Difluoromethyl)-5-methyl-pyrazol-1-yl]-6-[5-[(6-methylpyridazin-3-yl)amino]benzimidazol-1-yl]-3-pyridyl]ethanol] |
